Series [1] concerns H. pylori bacteria (ATCC 43504). The series is described as follows: H. pylori bacteria-proliferation inhibitory effect under in vitro (OD values at 600 nm). Type of series: cell-based, Helicobacter pylori.
In series [2] the test system is H. pylori bacteria (ATCC 43504 strain). The series is described as follows: Count of viable H. pylori bacteria (colony count) from stomach of orally infected meriones unguiculatus. The series is classed as in vivo. An excerpt: Antibacterial activities of GlcNAc derivatives towards H. pylori bacteria were investigated under in vivo by an experimental system using meriones unguiclatus infected orally with H. pylori bacteria.
Type strain of H. pylori bacteria (ATCC 43504 strain) was used as strain for infection. After stock strain thereof was recovered in Brain Heart Infusion (BHI) culture medium, which is available from Nissui Pharmaceutical Co., Ltd., including 10% horse serum, which is available from Dainippon Sumitomo Pharma Co., Ltd., and then cultured in the culture medium at 37° C. under microaerophilic condition using a microaerophilic incubator for 3 days. Finally the concentration thereof was adjusted to approximately 5×10^6 colony-forming-unit/mL (CFU/mL).
The meriones unguiculatus were fasted from 24 hours earlier of infection of Helicobacter pylori bacteria to 4 hours later of the infection thereof.
Approximately 1.0 mL of the liquid culture medium including Helicobacter pylori bacteria was administrated orally as 5×10^6 CFU/individual-animal to the fasted meriones unguiculatus. The day of infection was defined as initial day (i.e. Day 0)
Specimens prepared by using GlcNAcl-beta-O-Et of N-acetyl-glucosamine derivative according to following concentration of each group were administered.
Number of animal: 10 animals per one group
Means for administration: dietary administration
Stomach was respectively isolated from thus 10 animals of each group, and added into a centrifuging tube containing 5 mL of a phosphate buffer solution (PBS) to be homogenized with Polytron Homogenizer. 0.1 mL of the obtained homogenate was spread on Poamedia Vi Helico-S agar medium which is available from Eiken Chemical Co., Ltd. And then the bacterium were cultured at 37° C. under microaerophilic condition as same as above-mentioned incubation for culture. The formed violet colonies were counted.
They were carried out by above-mentioned statistical procedure.

The format of series [3] is physicochemical. The protocol:
[…]-beta-O-Et in a defined constant amount of the H. pylori bacteria-containing culture medium, which was cultured for 3 days, was measured by high performance liquid chromatography. A concentration of […]-beta-O-Et therein was determined by conversion using a calibration curve which was beforehand prepared from various definite concentrations of standard […]-beta-O-Et and peak areas of high pressure liquid chromatogram thereof. According to the determination, 6% of […]-beta-O-Et in the defined constant amount of the H. pylori bacteria-containing culture medium was reduced in comparison with initial concentration thereof. Consequently it was obvious that 6% of […]-beta-O-Et in the H. pylori bacteria-containing culture medium was decomposed to GlcNAc and ethanol (EtOH).

Series [4] can be described thus: Body weight and general remarks of symptoms of infected meriones unguiculatus under dietary administration.
Method: 4 weeks-old male meriones unguiculatus (SPF: specific-pathogen free), which were purchased from Kyudo Co., Ltd. (Br. Yoshitomi), were preliminarily reared for 23 days and then used for the experiments. The meriones unguiculatus were reared temperature of 24 plus or minus 3° C. and under relative humidity of 55 plus or minus 15% in all room for infected animals with conditions of lighting from a.m. 7 to p.m. 7 and ventilating 18 times per hour during preliminarily reared period and experiment period. 2 or 3 meriones unguiculatus were reared in a cage. All meriones unguiculates could freely get purified water as drinkable water and powdery feed MF as dry feed which is available from Oriental Yeast Co., Ltd. Incidentally the meriones unguiculatus were marked by application of dyestuff of picric acid solution for individual discrimination.
Amount of administration: 0.3% of the specimen blended with the powdery feed
The day of infection was defined as day 0. At 1st, 3rd, 6th, 10th, 13th, 17th, 20th, 24th, and 26th days, body weight was measured by a weight scale respectively.
Daily variance of the general remarks of symptoms thereof was observed.
As regards to body weight and count of colonies, average plus/minus standard error thereof in all groups was respectively calculated. […]

For the molecule `CCO[C@H]1O[C@H](CO)[C@@H](O)[C@H](O)[C@H]1NC(C)=O` [GlcNAcl-alpha-O-Et], in series [1] (in comparison with GlcNAcl-beta-O-Et, FIG. 6), the “effect on inhibiting the proliferation of H. pylori bacteria under in vitro” value is given as “did not almost indicate the effect”. Moreover, in series [2] (300 mg/kg/day, FIG. 8), the “statistical significant difference of the count of viable bacteria vs control group” value is on record as “not observed at all”. Also, in series [2] (1000 mg/kg/day, FIG. 8), the “count of H. pylori bacteria reduced in comparison with the control group” value is listed as “⅓” and the “statistical significant difference of the count of viable bacteria vs control group” value is on record as “eventually observed”.

Turning to `CC(=O)N[C@H]1C(O)O[C@H](CO)[C@@H](O)[C@@H]1O` (stereo partly drawn) [GlcNAc, N-acetyl-glucosamine, reference compound], in series [1] (concentration as high as 50 mM, FIG. 2), the proliferation inhibitory effect result is “does not show any proliferation inhibitory effect”.

Take `CCO` [ethanol, reference compound]: in series [1] (5 volume % (856 mM), FIG. 3), the proliferation inhibitory effect result was “shows proliferation inhibitory effect barely”.

For the molecule `CCO[C@@H]1O[C@H](CO)[C@@H](O)[C@H](O)[C@H]1NC(C)=O` [GlcNAcl-beta-O-Et, Ethoxy-2-acetamide-2-deoxy-N-acetyl-beta-D-glucosaminide], the “proliferation ability of H. pylori bacteria” value in series [1] (culture medium containing not less than 5 mM) is listed as “not more than 50%”; in series [1] (culture medium containing not less than 20 mM), “not more than 5%”. Further, the “H. pylori bacteria proliferation inhibited” value in series [1] (not less than 25 or 50 mM, cultivation 96 hours, vs negative control, FIG. 1) is “not less than 50%”. Besides, in series [3], the “stability in the culture medium” value is recorded as “stable”. Also, the “reduction of concentration in comparison with initial concentration (decomposed to GlcNAc and ethanol)” value in series [3] (H. pylori bacteria-containing culture medium cultured for 3 days, HPLC) was 6%. The “count of H. pylori bacteria reduced in comparison with the control group” value in series [2] (300 mg/kg/day dietary, all individuals, FIG. 5(a)) is on record as “½ to ⅓”; in series [2] (300 mg/kg/day dietary, outliers rejected by Smirnov-Grubbs test, FIG. 5(b)), “⅙”. Besides, the “statistical significant difference of the body weight increase vs control group” value in series [4] (300 mg/kg/day dietary administration (0.3% in feed), to day 26, FIG. 4) is “not observed”. Moreover, the “abnormal general remarks of symptoms” value in series [4] (300 mg/kg/day dietary administration, daily observation) is on record as “could not be observed”.
